{
  "source": "patent US20230172984A1",
  "about": "“CLEARANCE OF SENESCENT CELLS BY ACTIVATION OF iNKT CELLS” (THE REGENTS OF THE UNIVERSITY OF CALIFORNIA, priority 2020, published 2023)",
  "system": "senescent preadipocytes (C12FDG^Hi) in eWAT of HFD mice",
  "assay": "C12FDG flow cytometry assay (SA-βgal activity) on eWAT SVF of HFD mice",
  "type": "in vivo, mouse",
  "details": "HFD-fed mice treated with ABT-737 vs vehicle-treated controls",
  "experimental": "MATERIALS AND METHODS. Mouse husbandry. All procedures involving mice were performed according to the IACUC standards following ethics approval by the animal committee at the University of California, San Francisco. Male C57BL6/J on chow or HFD fed mice. HFD mice were fed a high-fat diet (60% kcal from fat) from 6 weeks until 22 weeks of age. All experiments on HFD mice were performed at 22-24 weeks total age (16-18 weeks on HFD). Age-matched male C57BL6/J mice on standard rodent chow diet were used as controls. For the lung injury model, 10-week-old male C57BL/6J mice were used. The animals were divided into three groups: the control group, the injured group, and the α-GalCer treated group. The animals in the control group received vehicle only (i.p.) on day 10. The injured group animals received bleomycin (3 U/kg) via the intratracheal route at the start of the experiment (day 0). The animals in the α-GalCer treated groups received bleomycin (3 U/kg) on day 0, and i.p. injection of α-GalCer (2 μg/mouse) on day 10. The animals in all the groups were sacrificed on day 14, and lungs were harvested for isolation of primary pulmonary Alveolar Type II cells (ATII) on the same day. For the hydroxyproline assay, mice were euthanized 21 days after injury.\nEpidydmal white adipose tissue stromal vascular fraction (eWAT SVF) isolation. eWAT SVF was isolated using standard protocols. Briefly, mice were euthanized, and epididymal fat pads were harvested, washed twice in D-PBS and minced. eWAT pads were digested with 1 U/ml Collagenase-D (Roche) in 1×HBSS containing 1% BSA (Sigma-Aldrich) for 1 hr at 37° C. Digested fat tissue was then strained twice through 100 μm strainers and neutralized with 30 ml of complete culture media (DMEM-F12 1:1, 10% FBS, 1×Penicillin-streptomycin). Samples were spun at 500 g for 5 minutes, shaken to resuspend the SVF pellet and then spun again. The resulting SVF pellet containing blood cells was lysed with ACKS buffer, washed in D-PBS and spun down. Total live SVF cells were counted using trypan blue and then used for various assays.\nC12FDG flow cytometry assay. eWAT SVF cells isolated and counted as described above were adjusted to 3×10^6 cells/ml in complete culture media and incubated with 33 μM C12FDG for 1 hr in a 37° C. water bath. Cells were then spun down at 500 g for 5 minutes, washed with Cell Staining buffer, and stained with anti-CD45-APC (clone 30F-11) and anti-CD31-PE-Cy7 (clone 390) each at a 1:200 dilution on ice for 30 minutes. Cells were then washed in Cell Staining buffer and resuspended in Cell Staining buffer containing 1×7-AAD. Samples were analyzed on an Attune acoustic focusing cytometer. Gates were set as follows: cells (FSC-A/SSC-A), forward scatter singlets (FSC-H/FSC-A), side-scatter singlets (SSC-H/SSC-A), live cells (7-AAD^−), non-immune cells (CD45^−), non-endothelial cells (CD31^−) and analyzed for C12FDG fluorescence. […] Data were analyzed with FlowJo (v. 10). For Lung, 1×10^6 cells from each sample were used to perform the assay. The cells were incubated with 66 μm of C12FDG in sterile DMEM containing DNase for 1 hour at 37° C. Following the incubation, the cells were washed with cell staining buffer, blocked with anti CD16/32 mouse monoclonal antibody (1:1000, prepared by the UCSF monoclonal antibody core), and stained with APC anti-mouse CD45 (1:400), and 7-AAD (1:1000). The gating strategy followed selected 7-AAD^−, CD45^−, and C12FDG^+ cells. […]",
  "data": [
    {"smiles": "CN(C)CC[C@H](CSc1ccccc1)Nc1ccc(S(=O)(=O)NC(=O)c2ccc(N3CCN(Cc4ccccc4-c4ccc(Cl)cc4)CC3)cc2)cc1[N+](=O)[O-]", "note": "[ABT-737]", "values": [
      {"measurement": "number of C12FDG^Hi cells in preadipocyte-enriched SVF population", "setting": "FIG. 2C", "result": "reduced the number of C12FDG^Hi cells"},
      {"measurement": "relative number of C12FDG^Lo cells in preadipocyte-enriched SVF population", "setting": "FIG. 2D", "result": "increased the relative number of C12FDG^Lo cells"}
    ]}
  ]
}
